For this experiment, the system named is subcutaneously grown Hep3B tumors. In words: Murine xenograft model of human HCC (Hep3B). It counts as in vivo, nude mice. The procedure: To test the armed vectors pc3MerV2 Id-SCD, pMerV2 P-SCD, and pc3MerV2 Id-VP22SCD in vivo, a murine xenograft model of human HCC was applied.
To compare the armed vectors, a mouse model of subcutaneously grown Hep3B tumors was chosen. This decision was based on the facts (i) that Hep3B can be efficiently infected by MeV and support MeV replication at high levels, (ii) that in Hep3B, the conversion of 5-FC into 5-FU is fast and efficient and (iii) that over an incubation of 1-4 days after addition of the prodrug to infected cells, an increasing gap between the treatment with virus alone and the combination treatment can be observed. Additionally, a mouse model of Hep3B has been described before (Blechacz B, Splinter P L, Greiner S, Myers R, Peng K W, Federspiel M J, Russell S J, LaRusso N F. Hepatology. 2006 December; 44(6):1465-77) with a high engraftment ratio (80%, personal communication with Boris Blechacz, Mayo Clinic, Rochester, Minn., USA). In contrast, this ratio is much lower in PLC/PRF/5 (60%) and in HepG2, both determined in our laboratory.
For this in vivo experiment, six week old nude mice received subcutaneous injections of 100 μl cell suspension containing 10^6 Hep3B cells in PBS. […] The tumors were very well vascularized and appeared blue through the nude skin of the mice. After the tumors had grown to a diameter of approximately 5 mm, the mice received five intratumoral injections of the respective virus (MeV Id-SCD, MeV Id-VP22SCD or MeV P-SCD) with 2*10^6 pfu per injection and one injection daily (total dose: 10^7 pfu). Control groups were treated with medium only. On the following seven days, the mice received 500 mg/kg bodyweight 5-FC in PBS intraperitoneally. Tumor volume and weight of the animals were determined three times a week.
The combinatorial treatment (MeV-SCD+5-FC) did neither lead to any visible changes in the behavior of the animals, nor did they show reactions like enhanced sensitivity to touch. The skin of the mice looked healthy, no changes in their movement or feeding behaviors were observed and their weight remained stable.
A general note: Xenograft models place foreign cells or tissue in a host animal.

With `Nc1nc(=O)[nH]cc1F` [5-FC, 5-fluorocytosine], the “effect of administration of the prodrug alone” value (5-FC 500 mg/kg i.p., 7 days, no virus) was “no effect”. In addition, the “day before which all mice had to be sacrificed” value (5-FC only group) is < 50 days. In addition, the median survival (virus 5 intratumoral injections 2*10^6 pfu, 5-FC 500 mg/kg i.p. for 7 days) turned out to be 32 days.

For the origin of these results see patent US9795643B2, “Oncolytic measles virus” (priority 2010, dated 2017).
